Test results taken from patent US10131744B2, “Antimicrobial polyamide compositions and mastitis treatment” (priority 2013, dated 2018).
Converted amounts (≈) assume the structure as drawn.

Key:
Klebsiella species = experiment: MIC in broth against Klebsiella species; format: cell-based
Procedure: (§1) The antimicrobial efficacy of twenty-five antimicrobial polymers (and Erythromycin) was evaluated using an MIC assay. For each study, a doubling dilution concentration of each antimicrobial polymer was prepared at 2× the final concentration range (0.12 to 16 μg/mL), and 100 μL of the API-null formulation was dispensed into the negative control wells. Overall, the antimicrobial polymer-containing compositions performed comparably well, or better, against the pathogens, as compared to Erythromycin (ERY).

Moraxella bovis = experiment: MIC in broth against Moraxella bovis; format: cell-based
Procedure: as §1

Proteus mirabilis = experiment: MIC in broth against Proteus mirabilis; format: cell-based
Procedure: as §1

Pseudomonas aeruginosa = experiment: MIC in broth against Pseudomonas aeruginosa; format: cell-based; design: unit not given beside the values
Procedure: as §1

Streptococcus agalactiae = experiment: MIC in broth against Streptococcus agalactiae; format: cell-based; design: unit not given beside the values
Procedure: as §1

Streptococcus canis = experiment: MIC in broth against Streptococcus canis; format: cell-based; design: unit not given beside the values
Procedure: as §1

[1] = test system: Streptococcus dysgalactiae; experiment: MIC in broth against Streptococcus dysgalactiae; format: cell-based
Procedure: as §1

[2] = test system: S. pneumoniae (Str-53) ATCC 49619; settings: cited from earlier work

## CC[C@H]1OC(=O)[C@H](C)[C@@H](O[C@H]2C[C@@](C)(OC)[C@@H](O)[C@H](C)O2)[C@H](C)[C@@H](O[C@@H]2O[C@H](C)C[C@H](N(C)C)[C@H]2O)[C@](C)(O)C[C@@H](C)C(=O)[C@H](C)[C@@H](O)[C@]1(C)O [Ery, Erythromycin]
Klebsiella species; isolate # 46
  MIC against Klebsiella species: >8 µg/mL
Klebsiella species; isolate # 47
  MIC against Klebsiella species: >8 µg/mL
Moraxella bovis; isolate # 88
  MIC: 0.3 µg/mL (≈ 0.409 µM)
Moraxella bovis; isolate # 89
  MIC: 0.5 µg/mL (≈ 0.681 µM)
Moraxella bovis; isolate # 90
  MIC: 0.5 µg/mL (≈ 0.681 µM)
Moraxella bovis; isolate # 91
  MIC: 1 µg/mL (≈ 1.36 µM)
Moraxella bovis; isolate # 92
  MIC: 0.5 µg/mL (≈ 0.681 µM)
Moraxella bovis; isolate # 93
  MIC: 0.3 µg/mL (≈ 0.409 µM)
Moraxella bovis; isolate # 94
  MIC: 0.5 µg/mL (≈ 0.681 µM)
Moraxella bovis; isolate # 95
  MIC: 0.5 µg/mL (≈ 0.681 µM)
Moraxella bovis; isolate # 96
  MIC: 0.5 µg/mL (≈ 0.681 µM)
Moraxella bovis; isolate # 97
  MIC: 0.5 µg/mL (≈ 0.681 µM)
Proteus mirabilis; Proteus mirabilis, isolate # 52
  MIC: > 8 µg/mL
Proteus mirabilis; isolate # 48
  MIC against Proteus mirabilis: >8 µg/mL
Proteus mirabilis; isolate # 49
  MIC against Proteus mirabilis: >8 µg/mL
Proteus mirabilis; isolate # 50
  MIC against Proteus mirabilis: >8 µg/mL
Proteus mirabilis; isolate # 51
  MIC against Proteus mirabilis: >8 µg/mL
Proteus mirabilis; isolate # 53
  MIC against Proteus mirabilis: >8 µg/mL
Proteus mirabilis; isolate # 54
  MIC against Proteus mirabilis: >8 µg/mL
Proteus mirabilis; isolate # 55
  MIC against Proteus mirabilis: >8 µg/mL
Proteus mirabilis; isolate # 56
  MIC against Proteus mirabilis: >8 µg/mL
Proteus mirabilis; isolate # 57
  MIC against Proteus mirabilis: >8 µg/mL
Pseudomonas aeruginosa; strain # 58
  MIC against Pseudomonas aeruginosa: >8
Pseudomonas aeruginosa; strain # 59
  MIC against Pseudomonas aeruginosa: >8
Pseudomonas aeruginosa; strain # 60
  MIC against Pseudomonas aeruginosa: >8
Pseudomonas aeruginosa; strain # 61
  MIC against Pseudomonas aeruginosa: >8
Pseudomonas aeruginosa; strain # 62
  MIC against Pseudomonas aeruginosa: >8
Pseudomonas aeruginosa; strain # 63
  MIC against Pseudomonas aeruginosa: >8
Pseudomonas aeruginosa; strain # 64
  MIC against Pseudomonas aeruginosa: >8
Pseudomonas aeruginosa; strain # 65
  MIC against Pseudomonas aeruginosa: >8
Pseudomonas aeruginosa; strain # 66
  MIC against Pseudomonas aeruginosa: >8
Pseudomonas aeruginosa; strain # 67
  MIC against Pseudomonas aeruginosa: >8
Streptococcus agalactiae; isolate # 188
  MIC against Streptococcus agalactiae: 0.03
Streptococcus agalactiae; isolate # 189
  MIC against Streptococcus agalactiae: 0.06
Streptococcus agalactiae; isolate # 190
  MIC against Streptococcus agalactiae: 0.03
Streptococcus agalactiae; isolate # 191
  MIC against Streptococcus agalactiae: 0.03
Streptococcus agalactiae; isolate # 192
  MIC against Streptococcus agalactiae: 0.06
Streptococcus agalactiae; isolate # 193
  MIC against Streptococcus agalactiae: 0.06
Streptococcus agalactiae; isolate # 194
  MIC against Streptococcus agalactiae: 0.03
Streptococcus agalactiae; isolate # 195
  MIC against Streptococcus agalactiae: 0.03
Streptococcus agalactiae; isolate # 196
  MIC against Streptococcus agalactiae: 0.03
Streptococcus agalactiae; isolate # 197
  MIC against Streptococcus agalactiae: 0.03
Streptococcus canis; isolate # 198
  MIC against Streptococcus canis: 0.06
Streptococcus canis; isolate # 199
  MIC against Streptococcus canis: 0.06
Streptococcus canis; isolate # 200
  MIC against Streptococcus canis: 0.12
Streptococcus canis; isolate # 201
  MIC against Streptococcus canis: 0.06
Streptococcus canis; isolate # 202
  MIC against Streptococcus canis: 0.06
Streptococcus canis; isolate # 203
  MIC against Streptococcus canis: 0.06
Streptococcus canis; isolate # 204
  MIC against Streptococcus canis: 0.06
Streptococcus canis; isolate # 205
  MIC against Streptococcus canis: 0.06
Streptococcus canis; isolate # 206
  MIC against Streptococcus canis: 0.06
Streptococcus canis; isolate # 207
  MIC against Streptococcus canis: 0.06
[1]; isolate # 208
  MIC: 0.06 µg/mL (≈ 0.0818 µM)
[1]; isolate # 209
  MIC: 0.06 µg/mL (≈ 0.0818 µM)
[1]; isolate # 210
  MIC: 0.12 µg/mL (≈ 0.164 µM)
[1]; isolate # 211
  MIC: 0.06 µg/mL (≈ 0.0818 µM)
[1]; isolate # 212
  MIC: 0.12 µg/mL (≈ 0.164 µM)
[1]; isolate # 213
  MIC: 0.12 µg/mL (≈ 0.164 µM)
[1]; isolate # 214
  MIC: 0.06 µg/mL (≈ 0.0818 µM)
[1]; isolate # 215
  MIC: 0.12 µg/mL (≈ 0.164 µM)
[1]; isolate # 216
  MIC: 0.06 µg/mL (≈ 0.0818 µM)
[1]; isolate # 217
  MIC: 0.12 µg/mL (≈ 0.164 µM)
[2]
  Known range (MIC): .03 to .12 µg/mL
